This is an account of results in paper PMC6813931, “Choline Kinase Emerges as a Promising Drug Target in Gram-Positive Bacteria” (Frontiers in Microbiology, 2019).

Molecules are shown by their SMILES.

Usually IC50 stands for the concentration that inhibits the measured activity by half.

The target of test [1] is T1, sChoK (S. pneumoniae isoform of choline kinase, LicA) (Streptococcus pneumoniae, UniProt Q8DPI4).
T1 construct: gene pck; ChoK activity measured in cell extracts
T1 sequence (Q8DPI4 1-289): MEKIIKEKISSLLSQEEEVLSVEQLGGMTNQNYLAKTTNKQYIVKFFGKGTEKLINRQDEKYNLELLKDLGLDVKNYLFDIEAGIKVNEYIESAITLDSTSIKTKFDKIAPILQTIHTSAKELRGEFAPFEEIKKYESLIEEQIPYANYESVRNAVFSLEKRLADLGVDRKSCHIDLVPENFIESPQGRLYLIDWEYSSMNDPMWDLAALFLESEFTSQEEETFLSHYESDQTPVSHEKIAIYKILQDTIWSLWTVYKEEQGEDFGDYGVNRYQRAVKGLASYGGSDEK
In words: sChoK activity inhibition (authors' earlier work). The class given is biochemical. The conditions noted are these: authors' own earlier result (Zimmerman and Ibrahim 2017), restated here; cited from earlier work. The source says: sChoK activity inhibition (authors' earlier work) on sChoK (S. pneumoniae isoform of choline kinase, LicA)

The target of test [2] is T1, sChoK (S. pneumoniae isoform of choline kinase, LicA). Briefly: colorimetric ChoK activity assay in cell extracts. The test is classed as biochemical. The source says: colorimetric ChoK activity assay in cell extracts on sChoK (S. pneumoniae isoform of choline kinase, LicA)

`C[N+]1(C)CCOC(O)(c2ccc(-c3ccc(C4(O)C[N+](C)(C)CCO4)cc3)cc2)C1` (stereo not drawn) [HC-3]: the IC50 in test [1] is over 2700 µM. `CN(C)c1cc[n+](Cc2ccc(CCCCc3ccc(C[n+]4ccc(N(C)C)cc4)cc3)cc2)cc1` [MN58b]: it took 197 µM to reach half-maximal inhibition in test [2] (IC50). For `CN(c1ccc(Cl)cc1)c1cc[n+](Cc2ccc(-c3ccc(C[n+]4ccc(N(C)c5ccc(Cl)cc5)c5ccccc54)cc3)cc2)c2ccccc12` [RSM-932A], the IC50 in test [2] came to 0.5 µM.
